# ChEMBL document CHEMBL1125386, “Small atrial natriuretic peptide analogues: design, synthesis, and structural requirements for guanylate cyclase activation” (J Med Chem, 1992)
# Tested on: not listed separately
# Assay: Binding affinity towards low-affinity site of Atrial natriuretic peptide receptor 1 of rabbit adrenal membrane
# Type: tissue-based
# Settings: not given
row,Structure (SMILES),KL [nM]
1,CC[C@H](C)[C@@H]1NC(=O)[C@H](CCCN=C(N)N)NC(=O)[C@@H](CC(=O)O)NC(=O)[C@H]([C@@H](C)CC)NC(=O)[C@@H](CCCN=C(N)N)NC(=O)CNC(=O)CNC(=O)[C@@H](Cc2ccccc2)NC(=O)CNC(=O)[C@@H](NC(=O)[C@H](CO)NC(=O)[C@@H](N)CO)CSSC[C@@H](C(=O)N[C@H](Cc2ccccc2)C(=O)N[C@@H](CCCCN=C(N)N)C(=O)O)NC1=O,320
2,CC[C@H](C)[C@@H]1NC(=O)[C@@H](CCCN=C(N)N)NC(=O)CNC(=O)CNC(=O)[C@@H](Cc2ccccc2)NC(=O)[C@H](NC(=O)[C@H](N)CCCN=C(N)N)CSSC[C@H](C(=O)O)NC(=O)[C@@H](CCCN=C(N)N)NC(=O)[C@H](Cc2ccccc2)NC(=O)[C@@H]([C@@H](C)CC)NC(=O)[C@H](CCCN=C(N)N)NC(=O)[C@@H](CC(=O)O)NC1=O,660
3,CC[C@H](C)[C@@H]1NC(=O)[C@@H](CCCN=C(N)N)NC(=O)CNC(=O)CNC(=O)[C@@H](Cc2ccccc2)NC(=O)CNC(=O)[C@H](NC(=O)[C@H](CO)NC(=O)[C@@H](N)CO)CSSC[C@H](C(=O)N[C@H](Cc2ccccc2)C(=O)NCC(=O)O)NC(=O)[C@@H]([C@@H](C)CC)NC(=O)[C@H](CCCN=C(N)N)NC(=O)[C@@H](CC(=O)O)NC1=O,3100
4,CC[C@H](C)[C@@H]1NC(=O)[C@@H](CCCN=C(N)N)NC(=O)CNC(=O)CNC(=O)[C@@H](C2CCCCC2)NC(=O)CCSSC[C@H](C(N)=O)NC(=O)[C@@H](CCCN=C(N)N)NC(=O)[C@H](Cc2ccccc2)NC(=O)[C@@H]([C@@H](C)CC)NC(=O)[C@H](CCCN=C(N)N)NC(=O)[C@@H](CC(=O)O)NC1=O,300
5,CC[C@H](C)[C@@H]1NC(=O)[C@H](CCCN=C(N)N)NC(=O)[C@@H](CC(=O)O)NC(=O)[C@H]([C@@H](C)CC)NC(=O)[C@@H](CCCN=C(N)N)NC(=O)CNC(=O)CNC(=O)[C@@H](Cc2ccccc2)NC(=O)CNC(=O)[C@@H](NC(=O)[C@H](CO)NC(=O)[C@@H](N)CO)CSSC[C@@H](C(=O)N[C@H](Cc2ccccc2)C(=O)N[C@@H](CCCCN)C(=O)O)NC1=O,5900
6,CC[C@H](C)[C@@H]1NC(=O)[C@@H](CCCN=C(N)N)NC(=O)CNC(=O)CNC(=O)[C@@H](C2CCCCC2)NC(=O)[C@H](NC(=O)[C@H](N)Cc2c[nH]cn2)CSSC[C@H](C(N)=O)NC(=O)[C@@H](CCCN=C(N)N)NC(=O)[C@H](Cc2ccccc2)NC(=O)[C@@H]([C@@H](C)CC)NC(=O)[C@H](CCCN=C(N)N)NC(=O)[C@@H](CC(=O)O)NC1=O,190
7,CC[C@H](C)[C@@H]1NC(=O)[C@@H](CCCN=C(N)N)NC(=O)CNC(=O)CNC(=O)[C@@H](Cc2ccccc2)NC(=O)CNC(=O)[C@H](NC(=O)[C@H](CO)NC(=O)[C@@H](N)CO)CSSC[C@H](C(=O)N[C@H](Cc2ccccc2)C(=O)N[C@@H](CCCN=C(N)N)C(=O)O)NC(=O)[C@@H]([C@@H](C)CC)NC(=O)[C@H](CCCN=C(N)N)NC(=O)[C@@H](CC(=O)O)NC1=O,620
8,CC[C@H](C)[C@@H]1NC(=O)[C@@H](CCCN=C(N)N)NC(=O)CNC(=O)CNC(=O)[C@@H](Cc2ccccc2)NC(=O)CNC(=O)[C@H](NC(=O)[C@H](CO)NC(=O)[C@@H](N)CO)CSSC[C@H](C(=O)N[C@@H](Cc2ccccc2)C(=O)N[C@H](CCCN=C(N)N)C(=O)O)NC(=O)[C@@H]([C@@H](C)CC)NC(=O)[C@H](CCCN=C(N)N)NC(=O)[C@@H](CC(=O)O)NC1=O,780
9,CC[C@H](C)[C@@H]1NC(=O)[C@@H](CCCN=C(N)N)NC(=O)CNC(=O)CNC(=O)[C@@H](Cc2ccccc2)NC(=O)CNC(=O)[C@H](NC(=O)[C@H](CO)NC(=O)[C@@H](N)CO)CSSC[C@H](C(=O)N[C@H](Cc2ccccc2)C(=O)N[C@H](CCCN=C(N)N)C(=O)O)NC(=O)[C@@H]([C@@H](C)CC)NC(=O)[C@H](CCCN=C(N)N)NC(=O)[C@@H](CC(=O)OC)NC1=O,1400
10,CC[C@H](C)[C@@H]1NC(=O)[C@@H](CCCN=C(N)N)NC(=O)CNC(=O)CNC(=O)[C@@H](Cc2ccccc2)NC(=O)[C@@H](C)NC(=O)[C@H](NC(=O)[C@H](CO)NC(=O)[C@@H](N)CO)CSSC[C@H](C(=O)N[C@H](Cc2ccccc2)C(=O)N[C@H](CCCN=C(N)N)C(=O)O)NC(=O)[C@@H]([C@@H](C)CC)NC(=O)[C@H](CC(=O)O)NC(=O)[C@@H](CCCN=C(N)N)NC1=O,7800
11,CC[C@H](C)[C@@H]1NC(=O)[C@@H](CCCN=C(N)N)NC(=O)CNC(=O)CNC(=O)[C@@H](Cc2ccccc2)NC(=O)[C@@H](C)NC(=O)[C@H](NC(=O)[C@H](CO)NC(=O)[C@@H](N)CO)CSSC[C@H](C(=O)N[C@H](Cc2ccccc2)C(=O)N[C@H](CCCN=C(N)N)C(=O)O)NC(=O)[C@@H]([C@@H](C)CC)NC(=O)[C@H](CCCN=C(N)N)NC(=O)CNC1=O,740
12,CC[C@H](C)[C@@H]1NC(=O)[C@@H](CCCN=C(N)N)NC(=O)CNC(=O)CNC(=O)[C@@H](C2CCCCC2)NC(=O)[C@H](NC(=O)[C@H](N)CCCN=C(N)N)CSSC[C@H](C(N)=O)NC(=O)[C@@H](CCCN=C(N)N)NC(=O)[C@@H]2Cc3ccccc3CN2C(=O)[C@@H]([C@@H](C)CC)NC(=O)[C@H](CCCN=C(N)N)NC(=O)[C@@H](CC(=O)O)NC1=O,270

# The remaining lines, values ahead:
row,KL [nM],Structure (SMILES)
1,13000,CC[C@H](C)[C@@H]1NC(=O)[C@@H](CCCN=C(N)N)NC(=O)CNC(=O)CNC(=O)[C@@H](Cc2ccc(OC)c(OC)c2)NC(=O)C(C)NC(=O)[C@H](NC(=O)[C@H](CO)NC(=O)[C@@H](N)CO)CSSC[C@H](C(=O)N[C@H](Cc2ccccc2)C(=O)N[C@H](CCCN=C(N)N)C(=O)O)NC(=O)[C@@H]([C@@H](C)CC)NC(=O)[C@H](CCCN=C(N)N)NC(=O)[C@@H](CC(=O)O)NC1=O (stereo in doubt)
2,540,CC[C@H](C)[C@@H]1NC(=O)[C@@H](CCCN=C(N)N)NC(=O)CNC(=O)CNC(=O)[C@@H](Cc2ccccc2)NC(=O)[C@@H](C)NC(=O)[C@H](NC(=O)[C@H](CO)NC(=O)[C@@H](N)CO)CSSC[C@H](C(=O)N[C@H](Cc2ccccc2)C(=O)N[C@H](CCCN=C(N)N)C(=O)O)NC(=O)[C@@H]([C@@H](C)CC)NC(=O)[C@H](CCCN=C(N)N)NC(=O)[C@@H](CC(N)=O)NC1=O
3,10000,CC[C@H](C)[C@@H]1NC(=O)[C@@H](CCCN=C(N)N)NC(=O)CNC(=O)CNC(=O)[C@@H](Cc2ccc(O)cc2)NC(=O)C(C)NC(=O)[C@H](NC(=O)[C@H](CO)NC(=O)[C@@H](N)CO)CSSC[C@H](C(=O)N[C@H](Cc2ccccc2)C(=O)N[C@H](CCCN=C(N)N)C(=O)O)NC(=O)[C@@H]([C@@H](C)CC)NC(=O)[C@H](CCCN=C(N)N)NC(=O)[C@@H](CC(=O)O)NC1=O (stereo in doubt)
4,810,CC[C@H](C)[C@@H]1NC(=O)[C@@H](CCCN=C(N)N)NC(=O)Cc2cccc(c2)NC(=O)Cc2cccc(c2)NC(=O)[C@@H](Cc2ccccc2)NC(=O)C(C)NC(=O)[C@H](NC(=O)[C@H](CO)NC(=O)[C@@H](N)CO)CSSC[C@H](C(=O)N[C@H](Cc2ccccc2)C(=O)N[C@H](CCCN=C(N)N)C(=O)O)NC(=O)[C@@H]([C@@H](C)CC)NC(=O)[C@H](CCCN=C(N)N)NC(=O)[C@@H](CC(=O)O)NC1=O (stereo in doubt)
5,290,CC[C@H](C)[C@@H]1NC(=O)[C@@H](CCCN=C(N)N)NC(=O)CNC(=O)CNC(=O)[C@@H](Cc2ccccc2)N(C)C(=O)C(C)NC(=O)[C@H](NC(=O)[C@H](CO)NC(=O)[C@@H](N)CO)CSSC[C@H](C(=O)N[C@H](Cc2ccccc2)C(=O)N[C@H](CCCN=C(N)N)C(=O)O)NC(=O)[C@@H]([C@@H](C)CC)NC(=O)[C@H](CCCN=C(N)N)NC(=O)[C@@H](CC(=O)O)NC1=O (stereo in doubt)
6,510,CC[C@H](C)[C@@H]1NC(=O)[C@@H](CCCN=C(N)N)NC(=O)CNC(=O)CNC(=O)[C@@H](Cc2ccccc2)NC(=O)[C@@H](C)NC(=O)[C@H](NC(=O)[C@H](CO)NC(=O)[C@@H](N)CO)CSSC[C@H](C(=O)N[C@H](Cc2ccccc2)C(=O)N[C@H](CCCN=C(N)N)C(=O)O)NC(=O)[C@@H]([C@@H](C)CC)NC(=O)[C@H](CCCN=C(N)N)NC(=O)[C@@H](CO)NC1=O
7,1400,CC[C@H](C)[C@@H]1NC(=O)[C@@H](CCCN=C(N)N)NC(=O)Cc2ccc(cc2)NC(=O)Cc2ccc(cc2)NC(=O)[C@@H](Cc2ccccc2)NC(=O)C(C)NC(=O)[C@H](NC(=O)[C@H](CO)NC(=O)[C@@H](N)CO)CSSC[C@H](C(=O)N[C@H](Cc2ccccc2)C(=O)N[C@H](CCCN=C(N)N)C(=O)O)NC(=O)[C@@H]([C@@H](C)CC)NC(=O)[C@H](CCCN=C(N)N)NC(=O)[C@@H](CC(=O)O)NC1=O (stereo in doubt)
8,1000,CC[C@H](C)[C@@H]1NC(=O)[C@@H](CCCN=C(N)N)NC(=O)CNC(=O)CNC(=O)[C@@H](Cc2ccccc2)NC(=O)[C@@H](C)NC(=O)[C@H](NC(=O)[C@H](CO)NC(=O)[C@@H](N)CO)CSSC[C@H](C(=O)N[C@H](Cc2ccccc2)C(=O)N[C@H](CCCN=C(N)N)C(=O)O)NC(=O)[C@@H]([C@@H](C)CC)NC(=O)[C@H](CCCN=C(N)N)NC(=O)[C@@H](C)NC1=O

# Tested on: Atrial natriuretic peptide receptor 1 (Oryctolagus cuniculus)
# Assay: Binding affinity towards the low-affinity site atrionatriuretic peptide receptor 1 of rabbit adrenal membrane
# Settings: not given
row,KL [µM],Structure (SMILES)
1,7.1,CC[C@H](C)[C@@H]1NC(=O)[C@@H](CCCN=C(N)N)NC(=O)CNC(=O)CNC(=O)[C@@H](Cc2ccccc2)NC(=O)[C@@H](C)NC(=O)[C@H](NC(=O)[C@H](CO)NC(=O)[C@@H](N)CO)CSSC[C@H](C(=O)N[C@H](Cc2ccccc2)C(=O)N[C@H](CCCN=C(N)N)C(=O)O)NC(=O)[C@@H]([C@@H](C)CC)NC(=O)[C@H](C)NC(=O)[C@@H](CC(=O)O)NC1=O

# Tested on: Atrial natriuretic peptide receptor 1 (Oryctolagus cuniculus)
# Assay: Binding affinity for low-affinity site Atrial natriuretic peptide receptor 1 of rabbit adrenal membrane
# Settings: Adrenal gland
row,KL [nM],Structure (SMILES)
1,380,CC[C@H](C)[C@@H]1NC(=O)[C@@H](CCCN=C(N)N)NC(=O)CNC(=O)CNC(=O)[C@@H](C2CCCCC2)NC(=O)CCSSC[C@H](C(N)=O)NC(=O)[C@H](CCCN=C(N)N)NC(=O)[C@H](Cc2ccccc2)NC(=O)[C@@H]([C@@H](C)CC)NC(=O)[C@H](CCCN=C(N)N)NC(=O)[C@@H](CC(=O)O)NC1=O
2,680,CC[C@H](C)[C@H]1NC(=O)[C@H](CCCN=C(N)N)NC(=O)[C@@H](CC(=O)O)NC(=O)[C@H](Cc2ccccc2)NC(=O)[C@@H](CCCN=C(N)N)NC(=O)CNC(=O)CNC(=O)[C@@H](C2CCCCC2)NC(=O)[C@H](NC(=O)[C@H](N)CCCN=C(N)N)CSSC[C@H](C(N)=O)NC(=O)[C@@H](CCCN=C(N)N)NC(=O)[C@H](Cc2ccccc2)NC1=O
3,1900,CC[C@H](C)[C@@H]1NC(=O)[C@@H](CCCN=C(N)N)NC(=O)CNC(=O)CNC(=O)[C@@H](C2CCCCC2)NC(=O)CCSSC[C@@H](C(N)=O)NC(=O)[C@@H](CCCN=C(N)N)NC(=O)[C@H](Cc2ccccc2)NC(=O)[C@@H]([C@@H](C)CC)NC(=O)[C@H](CCCN=C(N)N)NC(=O)[C@@H](CC(=O)O)NC1=O
